# Measurements: patent US8236762B2, “Peptide-cytotoxic conjugates” (IPSEN Pharma S.A.S., priority 2006, dated 2012)
# pKi: −log10 of the molar value. Numbered stars: 1 amine (or outer) side, 2 acyl side, 3 side chain; on linkers, the order of the positions; unused ones are H or OH. Bridge positions count the residues as written; N and C are the ends. Square brackets hold non-standard residues; d marks the D form. Peptide text beside a SMILES is read from it. * marks the point of attachment. Pipz(1-CH2CO,4-CH2CH2NH) = O=C(CN1CCN(CCN[*:1])CC1)[*:2]; X1 = CC[C@@]1(O*)C(=O)OCc2c1cc1n(c2=O)Cc2cc3ccccc3nc2-1; Tyr(3-I) = N[C@@H](Cc1ccc(O)c(I)c1)C(=O)O; Glutaryl = O=C(CCCC(=O)[*:2])[*:1]; Suc = O=C(CCC(=O)[*:2])[*:1]; Nle = CCCC[C@H](N)C(=O)O; Abu = CC[C@H](N)C(=O)O; AEEA = NCCOCCOCC(=O)O; Ava = NCCCCC(=O)O; GABA = NCCCC(=O)O; βAla = NCCC(=O)O
# Assays:
# [1] = Half-life determination in human plasma (LC-MS); format: in vitro ADME; settings: 37° C.
# Description: (§1) Samples containing approximately 50 μg/ml up to and including approximately 500 μg/ml of test compound according to Formula IA or IB or II was added to 450 μl human or mouse plasma, vortexed briefly and incubated at 37° C. At various time intervals, e.g., 0, 0.5, 1, 2, 4, 6, 8, 24, 36 and 48 hours, 50 μl of the compound-plasma mixture was added to 150 μl acetonitrile in a microcentrifuge tube. The mixture was vortexed, centrifuged for 5 minutes at 10K RPM, and 135 μl of supernatant was transferred to an injection vial. The recovered supernatant was analyzed by using a liquid chromatography-mass spectrophotometer system (LC-MS) consisting of a Finnigan Deca XP® mass spectrometer with an ESI probe at the positive ion mode. HPLC separation was carried out on a Luna 3μ C8 (2)® 3×50 mm column with a gradient decreasing from 100% A to 80% B for 10 minutes at a flow rate of 0.25 ml/min. Buffer A was 0.1% acetic acid in water and buffer B was 0.1% acetic acid acetonitrile.
# [2] = Half-life determination in mouse plasma (LC-MS); format: in vitro ADME; settings: 37° C.
# Description: as §1
# bombesin/GRP receptor = target: T1, bombesin/GRP receptor (Rattus norvegicus, UniProt P52500); assay: Bombesin/GRP radioligand binding (AR42J rat pancreas cell membranes); settings: read-out: Ki bombesin receptor ± (SEM)
# T1 construct: AR42J rat pancreas cells expressing the native bombesin/GRP receptor; endogenous in cells; host or cells: AR42J rat pancreas cells
# Description: Membranes were prepared for radioligand binding studies by homogenization of AR42J rat pancreas cells expressing the native bombesin/GRP receptor in 20 ml of ice-cold 50 mM Tris-HCl with a Brinkman Polytron® (Westbury, N.Y., U.S.A.) at settings of 6, 15 seconds. The homogenates were washed twice by centrifugation (39,000 g/10 minutes) and the final pellets were resuspended in 50 mM Tris-HCl containing 2.5 mM MgCl2 and 0.1% BSA. […] The filters were then washed three times with 5-ml aliquots of ice-cold 50 mM Tris-HCl. The bound radioactivity trapped on the filters was counted by gamma spectrometry (Wallac LKB®, Gaithersburg, Md., U.S.A.).
# hSSTR-2 = target: T2, hSSTR-2 (Homo sapiens, UniProt P30874); assay: Somatostatin receptor radioligand binding, hSSTR-2 (CHO-K1 membranes); settings: read-out: Ki hSSTR2 ± (SEM)
# T2 construct: expressed in transfected cells; host or cells: CHO-K1
# Description: (§2) For the hSSTR-1, hSSTR-3, and hSSTR-4 assays, aliquots of the membrane preparations were incubated for 90 minutes at 25° C. with 0.05 nM [^125I-Tyr11]SRIF-14 in 50 mM HEPES (pH 7.4) buffer containing 0.2% BSA and 5 mM MgCl2. The final assay volume was 0.3 ml. For the hSSTR-2 and hSSTR-5 assays, [^125I]-[4-(2-hydroxyethyl)]-1-piperazinylacetyl-D-Phe-c(Cys-Tyr-D-Trp-Lys-Abu-Cys)-Thr-NH2 (0.05 nM) and [^125I]-D-Phe-c(Cys-Tyr-D-Trp-Lys-Val-Cys)-Thr-NH2 were employed as the radioligands, respectively.
# hSSTR-1 = target: T3, hSSTR-1 (Homo sapiens, UniProt P30872); assay: Somatostatin receptor radioligand binding, hSSTR-1 (CHO-K1 membranes); settings: read-out: Ki hSSTR1 ± (SEM)
# T3 construct: expressed in transfected cells; host or cells: CHO-K1
# Description: Membranes for in vitro receptor binding assays were obtained by homogenizing (Polytron setting 6, 15 sec) CHO-K1 cells expressing human somatostatin receptor subtypes hSSTR-1, hSSTR-2, hSSTR-3, hSSTR-4 or hSSTR-5 in ice-cold 50 mM Tris-HCl. The homogenized cells were centrifuged twice at 39,000 g for 10 minutes with an intermediate resuspension in fresh buffer. The final pellets were resuspended in 10 mM Tris-HCl to prepare the cell membrane homogenate for use in the binding assay.
# The final assay volume was 0.3 ml.
# The cell membrane homogenate was incubated with the radioligands for 90 minutes at 25° C. The incubations were terminated by rapid filtration through GF/C filters pre-soaked in 0.3% polyethylenimine using a Brandel® filtration manifold (Gaithersberg, Md., U.S.A.). Each tube and filter was washed three times with 5-ml aliquots of ice-cold buffer. Specific binding was defined as the total radioligand bound minus that bound in the presence of 1000 nM SRIF-14 (for hSSTR-1, hSSTR-3, hSSTR-4 or hSSTR-5), or 1000 nM DPhe-c(Cys-Tyr-D-Trp-Lys-Abu-Cys)-Thr-NH2 for hSSTR-2.
# hSSTR-3 = target: T4, hSSTR-3 (Homo sapiens, UniProt P32745); assay: Somatostatin receptor radioligand binding, hSSTR-3 (CHO-K1 membranes); settings: read-out: Ki hSSTR3 ± (SEM)
# T4 construct: expressed in transfected cells; host or cells: CHO-K1
# Description: as §2
# hSSTR-5 = target: T5, hSSTR-5 (Homo sapiens, UniProt P35346); assay: Somatostatin receptor radioligand binding, hSSTR-5 (CHO-K1 membranes); settings: read-out: Ki hSSTR5 ± (SEM)
# T5 construct: expressed in transfected cells; host or cells: CHO-K1
# Description: as §2
# hSSTR-4 = target: T6, hSSTR-4 (Homo sapiens, UniProt P31391); assay: Somatostatin receptor radioligand binding, hSSTR-4 (CHO-K1 membranes); settings: read-out: Ki hSSTR4 ± (SEM)
# T6 construct: expressed in transfected cells; host or cells: CHO-K1
# T6 sequence (P31391 whole entry): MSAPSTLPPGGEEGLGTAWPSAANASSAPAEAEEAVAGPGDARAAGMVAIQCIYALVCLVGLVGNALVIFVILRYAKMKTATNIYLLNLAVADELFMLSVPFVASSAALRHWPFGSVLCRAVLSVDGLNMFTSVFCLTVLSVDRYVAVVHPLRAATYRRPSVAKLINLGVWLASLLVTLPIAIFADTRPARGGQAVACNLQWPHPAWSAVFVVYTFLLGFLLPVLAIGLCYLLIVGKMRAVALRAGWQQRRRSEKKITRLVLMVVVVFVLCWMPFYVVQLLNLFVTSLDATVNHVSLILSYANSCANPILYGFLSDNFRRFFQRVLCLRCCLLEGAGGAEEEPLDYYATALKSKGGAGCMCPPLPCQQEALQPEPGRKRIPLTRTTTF
# Description: as §2
# T1 sequence (P52500 whole entry): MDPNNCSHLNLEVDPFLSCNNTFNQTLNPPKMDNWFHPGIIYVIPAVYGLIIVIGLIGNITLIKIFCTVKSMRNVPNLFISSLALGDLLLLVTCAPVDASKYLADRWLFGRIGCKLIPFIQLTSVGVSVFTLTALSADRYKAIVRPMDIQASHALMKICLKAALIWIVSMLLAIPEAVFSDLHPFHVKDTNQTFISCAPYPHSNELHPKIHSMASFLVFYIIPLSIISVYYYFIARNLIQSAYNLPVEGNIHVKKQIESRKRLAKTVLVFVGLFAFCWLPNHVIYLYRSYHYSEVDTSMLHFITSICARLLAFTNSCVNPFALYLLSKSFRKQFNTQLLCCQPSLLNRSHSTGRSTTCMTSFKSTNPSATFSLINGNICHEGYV
# T5 sequence (P35346 whole entry): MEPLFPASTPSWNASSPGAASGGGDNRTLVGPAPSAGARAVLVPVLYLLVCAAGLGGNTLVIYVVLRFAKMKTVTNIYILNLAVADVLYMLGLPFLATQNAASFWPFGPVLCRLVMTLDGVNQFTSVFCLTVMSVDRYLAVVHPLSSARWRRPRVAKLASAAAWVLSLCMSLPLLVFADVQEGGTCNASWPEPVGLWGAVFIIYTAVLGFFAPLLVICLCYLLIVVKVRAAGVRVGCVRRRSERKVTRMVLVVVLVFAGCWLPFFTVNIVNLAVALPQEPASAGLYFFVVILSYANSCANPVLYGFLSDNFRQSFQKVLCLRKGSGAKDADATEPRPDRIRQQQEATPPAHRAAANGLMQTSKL
# T3 sequence (P30872 whole entry): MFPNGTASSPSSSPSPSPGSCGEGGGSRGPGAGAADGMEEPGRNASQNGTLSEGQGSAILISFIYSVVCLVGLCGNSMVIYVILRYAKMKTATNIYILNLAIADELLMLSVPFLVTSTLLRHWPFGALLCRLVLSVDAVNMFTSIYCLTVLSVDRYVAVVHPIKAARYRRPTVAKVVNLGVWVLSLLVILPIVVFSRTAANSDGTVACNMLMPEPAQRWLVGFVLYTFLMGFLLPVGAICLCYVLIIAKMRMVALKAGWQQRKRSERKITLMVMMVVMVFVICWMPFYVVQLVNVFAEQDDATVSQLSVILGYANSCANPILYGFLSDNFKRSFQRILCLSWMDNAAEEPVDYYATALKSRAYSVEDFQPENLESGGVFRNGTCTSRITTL
# T2 sequence (P30874 whole entry): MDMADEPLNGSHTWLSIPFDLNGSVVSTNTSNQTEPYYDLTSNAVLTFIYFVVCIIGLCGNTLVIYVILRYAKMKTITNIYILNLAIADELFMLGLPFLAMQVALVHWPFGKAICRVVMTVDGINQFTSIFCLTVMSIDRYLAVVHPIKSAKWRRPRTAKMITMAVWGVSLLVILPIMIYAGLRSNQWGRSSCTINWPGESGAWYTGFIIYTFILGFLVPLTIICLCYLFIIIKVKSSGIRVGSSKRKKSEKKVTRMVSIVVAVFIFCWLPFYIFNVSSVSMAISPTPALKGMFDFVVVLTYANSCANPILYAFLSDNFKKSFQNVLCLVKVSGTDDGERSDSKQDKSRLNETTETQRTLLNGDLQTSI
# T4 sequence (P32745 whole entry): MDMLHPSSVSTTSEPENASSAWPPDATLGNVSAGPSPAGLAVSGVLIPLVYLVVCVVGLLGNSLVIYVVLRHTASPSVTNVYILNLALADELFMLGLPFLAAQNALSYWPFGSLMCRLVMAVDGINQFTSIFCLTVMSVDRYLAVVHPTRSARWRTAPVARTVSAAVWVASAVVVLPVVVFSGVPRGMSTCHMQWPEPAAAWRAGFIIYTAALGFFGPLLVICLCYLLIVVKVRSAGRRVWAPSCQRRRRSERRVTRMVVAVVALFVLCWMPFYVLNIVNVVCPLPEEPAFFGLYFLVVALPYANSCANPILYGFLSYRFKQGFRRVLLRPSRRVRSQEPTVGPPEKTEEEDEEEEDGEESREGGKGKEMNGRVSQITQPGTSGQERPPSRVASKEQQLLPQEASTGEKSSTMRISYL
SMILES,half-life [1],half-life [2],pKi (bombesin/GRP receptor),pKi (hSSTR-2),pKi (hSSTR-1),pKi (hSSTR-3),pKi (hSSTR-5),pKi (hSSTR-4)
"CCCC[C@H](NC(=O)[C@H](CC(C)C)NC(=O)[C@H](Cc1c[nH]cn1)NC(=O)CCNC(=O)[C@@H](NC(=O)[C@H](C)NC(=O)[C@H](Cc1c[nH]c2ccccc12)NC(=O)[C@H](CCC(N)=O)NC(=O)[C@H](CC(N)=O)NC(=O)CCCCNC(=O)CN1CCN(CCNC(=O)COCCOCCNC(=O)COCCOCCNC(=O)COCCOCCNC(=O)COCCOCCNC(=O)CCC(=O)NCC(=O)O[C@]2(CC)C(=O)OCc3c2cc2n(c3=O)Cc3cc4ccccc4nc3-2)CC1)C(C)C)C(N)=O [Example 24, Camptothecin-rvGly-Suc-(Doc)4-Aepa-Apn-Asn-Gln-Trp-Ala-Val-β-Ala-His-Leu-Nle-NH2] ({X1-Gly-Suc-AEEA-AEEA-AEEA-AEEA}-[Pipz(1-CH2CO,4-CH2CH2NH)][Ava]NQWAV[βAla]HL[Nle]-NH2)",4.6 h,2.6 h,8.39,–,–,–,–,–
"CC[C@@H]1NC(=O)[C@H](CCCCN)NC(=O)[C@@H](Cc2c[nH]c3ccccc23)NC(=O)[C@H](Cc2ccc(O)c(I)c2)NC(=O)[C@@H](NC(=O)[C@@H](Cc2ccc(O)cc2)NC(=O)[C@@H](Cc2ccc(O)cc2)NC(=O)[C@H](CCCCN)NC(=O)COCCOCCNC(=O)COCCOCCNC(=O)COCCOCCNC(=O)COCCOCCNC(=O)CCCC(=O)NCC(=O)O[C@]2(CC)C(=O)OCc3c2cc2n(c3=O)Cc3cc4ccccc4nc3-2)CSSC[C@@H](C(=O)N[C@H](C(N)=O)[C@@H](C)O)NC1=O [Example 3, Camptothecin-rvGly-Glut-(Doc)4-Lys-D-Tyr-D-Tyr-c(Cys-3-(I)Tyr-D-Trp-Lys-Abu-Cys)-Thr-NH2] ({X1-Gly-Glutaryl-AEEA-AEEA-AEEA-AEEA}-K[dY][dY]C[Tyr(3-I)][dW]K[Abu]CT-NH2; disulfide 4-9)",3.8 h,5.7 h,–,10.00,≤ 6.00,7.03,8.41,≤ 6.00
"CCCC[C@H](NC(=O)[C@H](CC(C)C)NC(=O)[C@H](Cc1c[nH]cn1)NC(=O)CCNC(=O)[C@@H](NC(=O)[C@H](C)NC(=O)[C@H](Cc1c[nH]c2ccccc12)NC(=O)[C@H](CCC(N)=O)NC(=O)CCCNC(=O)[C@H](CC(C)C)NC(=O)CN1CCN(CCNC(=O)COCCOCCNC(=O)COCCOCCNC(=O)COCCOCCNC(=O)COCCOCCNC(=O)CCC(=O)NCC(=O)O[C@]2(CC)C(=O)OCc3c2cc2n(c3=O)Cc3cc4ccccc4nc3-2)CC1)C(C)C)C(N)=O [Example 22, Camptothecin-rvGly-Suc-(Doc)4-Aepa-Leu-Gaba-Gln-Trp-Ala-Val-β-Ala-His-Leu-Nle-NH2] ({X1-Gly-Suc-AEEA-AEEA-AEEA-AEEA}-[Pipz(1-CH2CO,4-CH2CH2NH)]L[GABA]QWAV[βAla]HL[Nle]-NH2)",1.8 h,2.1 h,7.74,–,–,–,–,–
"CCCC[C@H](NC(=O)[C@H](CC(C)C)NC(=O)[C@H](Cc1c[nH]cn1)NC(=O)CCNC(=O)[C@@H](NC(=O)[C@H](C)NC(=O)[C@H](Cc1c[nH]c2ccccc12)NC(=O)[C@H](CCC(N)=O)NC(=O)[C@H](CCCC)NC(=O)CN1CCN(CCNC(=O)COCCOCCNC(=O)COCCOCCNC(=O)COCCOCCNC(=O)COCCOCCNC(=O)CCC(=O)NCC(=O)O[C@]2(CC)C(=O)OCc3c2cc2n(c3=O)Cc3cc4ccccc4nc3-2)CC1)C(C)C)C(N)=O [Example 20, Camptothecin-rvGly-Suc-(Doc)4-Aepa-Nle-Gln-Trp-Ala-Val-β-Ala-His-Leu-Nle-NH2] ({X1-Gly-Suc-AEEA-AEEA-AEEA-AEEA}-[Pipz(1-CH2CO,4-CH2CH2NH)][Nle]QWAV[βAla]HL[Nle]-NH2)",4.8 h,2.8 h,8.34,–,–,–,–,–
"CC[C@@H]1NC(=O)[C@H](CCCCN)NC(=O)[C@@H](Cc2c[nH]c3ccccc23)NC(=O)[C@H](Cc2ccc(O)c(I)c2)NC(=O)[C@@H](NC(=O)[C@@H](Cc2ccc(O)cc2)NC(=O)[C@@H](Cc2ccc(O)cc2)NC(=O)[C@H](CCCCN)NC(=O)COCCOCCNC(=O)COCCOCCNC(=O)COCCOCCNC(=O)COCCOCCNC(=O)COCCOCCNC(=O)COCCOCCNC(=O)CCCC(=O)NCC(=O)O[C@]2(CC)C(=O)OCc3c2cc2n(c3=O)Cc3cc4ccccc4nc3-2)CSSC[C@@H](C(=O)N[C@H](C(N)=O)[C@@H](C)O)NC1=O [Example 2, Camptothecin-rvGly-Glut-(Doc)6-Lys-D-Tyr-D-Tyr-c(Cys-3-(I)Tyr-D-Trp-Lys-Abu-Cys)-Thr-NH2] ({X1-Gly-Glutaryl-AEEA-AEEA-AEEA-AEEA-AEEA-AEEA}-K[dY][dY]C[Tyr(3-I)][dW]K[Abu]CT-NH2; disulfide 4-9)",2.2 h,4.6 h,–,9.44,≤ 6.00,6.90,8.52,≤ 6.00
"CCCC[C@H](NC(=O)[C@H](CC(C)C)NC(=O)[C@H](Cc1c[nH]cn1)NC(=O)CCNC(=O)[C@@H](NC(=O)[C@H](C)NC(=O)[C@H](Cc1c[nH]c2ccccc12)NC(=O)[C@H](CCC(N)=O)NC(=O)[C@@H](Cc1ccc(O)cc1)NC(=O)[C@@H](CO)NC(=O)CN1CCN(CCNC(=O)COCCOCCNC(=O)COCCOCCNC(=O)COCCOCCNC(=O)COCCOCCNC(=O)CCC(=O)NCC(=O)O[C@]2(CC)C(=O)OCc3c2cc2n(c3=O)Cc3cc4ccccc4nc3-2)CC1)C(C)C)C(N)=O [Example 27, Camptothecin-rvGly-Suc-(Doc)4-Aepa-D-Ser-D-Tyr-Gln-Trp-Ala-Val-β-Ala-His-Leu-Nle-NH2] ({X1-Gly-Suc-AEEA-AEEA-AEEA-AEEA}-[Pipz(1-CH2CO,4-CH2CH2NH)][dS][dY]QWAV[βAla]HL[Nle]-NH2)",4.5 h,3.8 h,8.40,–,–,–,–,–
"CC[C@@H]1NC(=O)[C@H](CCCCN)NC(=O)[C@@H](Cc2c[nH]c3ccccc23)NC(=O)[C@H](Cc2ccc(O)cc2)NC(=O)[C@@H](NC(=O)[C@@H](Cc2ccccc2)NC(=O)CN2CCN(CCNC(=O)COCCOCCNC(=O)COCCOCCNC(=O)COCCOCCNC(=O)COCCOCCNC(=O)CCC(=O)NCCCCCCC(=O)O[C@]3(CC)C(=O)OCc4c3cc3n(c4=O)Cc4cc5ccccc5nc4-3)CC2)CSSC[C@@H](C(=O)N[C@H](C(N)=O)[C@@H](C)O)NC1=O [Example 18, Camptothecin-rvAhp-Suc-(Doc)4-Aepa-D-Phe-cyclo(Cys-Tyr-D-Trp-Lys-Abu-Cys)-Thr-NH2]",8 h,16.2 h,–,–,≤ 6.00,–,≤ 6.00,–
"CC[C@@H]1NC(=O)[C@H](CCCCN)NC(=O)[C@@H](Cc2c[nH]c3ccccc23)NC(=O)[C@H](Cc2ccc(O)cc2)NC(=O)[C@@H](NC(=O)[C@@H](Cc2ccccc2)NC(=O)CN2CCN(CCNC(=O)COCCOCCNC(=O)COCCOCCNC(=O)COCCOCCNC(=O)COCCOCCNC(=O)CCC(=O)NCCCCCCCCC(=O)O[C@]3(CC)C(=O)OCc4c3cc3n(c4=O)Cc4cc5ccccc5nc4-3)CC2)CSSC[C@@H](C(=O)N[C@H](C(N)=O)[C@@H](C)O)NC1=O [Example 17, Camptothecin-rvAnc-Suc-(Doc)4-Aepa-D-Phe-cyclo(Cys-Tyr-D-Trp-Lys-Abu-Cys)-Thr-NH2]",28.6 h,15.6 h,–,–,≤ 6.00,–,≤ 6.00,–
